{"source": "PubChem BioAssay (NCI)", "assay_in_all_cases": "NCI tumour cell line growth inhibition, 384-well format", "key": {"786-0 renal": {"tested_on": "786-0 renal"}, "A498 renal": {"tested_on": "A498 renal"}, "A549 NSCLC": {"tested_on": "A549 NSCLC"}, "ACHN renal": {"tested_on": "ACHN renal"}, "BT-549 breast": {"tested_on": "BT-549 breast"}, "CAKI-1 renal": {"tested_on": "CAKI-1 renal"}, "COLO 205 colon": {"tested_on": "COLO 205 colon"}, "DU-145 prostate": {"tested_on": "DU-145 prostate"}, "EKVX NSCLC": {"tested_on": "EKVX NSCLC"}, "HCC-2998 colon": {"tested_on": "HCC-2998 colon"}, "HCT-116 colon": {"tested_on": "HCT-116 colon"}, "HCT-15 colon": {"tested_on": "HCT-15 colon"}, "HL-60(TB) leukemia": {"tested_on": "HL-60(TB) leukemia"}, "HOP-62 NSCLC": {"tested_on": "HOP-62 NSCLC"}, "HOP-92 NSCLC": {"tested_on": "HOP-92 NSCLC"}, "HS 578T breast": {"tested_on": "HS 578T breast"}, "HT29 colon": {"tested_on": "HT29 colon"}, "IGROV1 ovarian": {"tested_on": "IGROV1 ovarian"}, "K-562 leukemia": {"tested_on": "K-562 leukemia"}, "KM12 colon": {"tested_on": "KM12 colon"}, "LOX IMVI melanoma": {"tested_on": "LOX IMVI melanoma"}, "M14 melanoma": {"tested_on": "M14 melanoma"}, "MALME-3M melanoma": {"tested_on": "MALME-3M melanoma"}, "MCF7 breast": {"tested_on": "MCF7 breast"}, "MDA-MB-231 breast": {"tested_on": "MDA-MB-231 breast"}, "MDA-MB-435 melanoma": {"tested_on": "MDA-MB-435 melanoma"}, "MDA-MB-468 breast": {"tested_on": "MDA-MB-468 breast"}, "MOLT-4 leukemia": {"tested_on": "MOLT-4 leukemia"}, "NCI-H226 lung": {"tested_on": "NCI-H226 lung"}}, "note": "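The concentration for 50% growth inhibition is given as GI50. TGI: total growth inhibition.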", "data": [{"smiles": "O=C(C1CC1)N1CC[C@@H](Cc2n[nH]c(=O)n2-c2ccc(-c3ccc4occc4c3)cc2)C1", "values": [{"measurement": "GI50", "setting": "786-0 renal", "result": 25.6, "unit": "µM"}, {"measurement": "TGI", "setting": "786-0 renal", "result": "> 100", "unit": "µM"}, {"measurement": "GI50", "setting": "A498 renal", "result": 29.4, "unit": "µM"}, {"measurement": "TGI", "setting": "A498 renal", "result": "> 100", "unit": "µM"}, {"measurement": "GI50", "setting": "A549 NSCLC", "result": 23.4, "unit": "µM"}, {"measurement": "TGI", "setting": "A549 NSCLC", "result": "> 100", "unit": "µM"}, {"measurement": "GI50", "setting": "ACHN renal", "result": 24.6, "unit": "µM"}, {"measurement": "TGI", "setting": "ACHN renal", "result": "> 100", "unit": "µM"}, {"measurement": "GI50", "setting": "BT-549 breast", "result": 13.3, "unit": "µM"}, {"measurement": "TGI", "setting": "BT-549 breast", "result": 72.4, "unit": "µM"}, {"measurement": "GI50", "setting": "CAKI-1 renal", "result": 32.4, "unit": "µM"}, {"measurement": "TGI", "setting": "CAKI-1 renal", "result": "> 100", "unit": "µM"}, {"measurement": "GI50", "setting": "COLO 205 colon", "result": 42.2, "unit": "µM"}, {"measurement": "TGI", "setting": "COLO 205 colon", "result": "> 100", "unit": "µM"}, {"measurement": "GI50", "setting": "DU-145 prostate", "result": 35.3, "unit": "µM"}, {"measurement": "TGI", "setting": "DU-145 prostate", "result": "> 100", "unit": "µM"}, {"measurement": "GI50", "setting": "EKVX NSCLC", "result": 22.9, "unit": "µM"}, {"measurement": "TGI", "setting": "EKVX NSCLC", "result": "> 100", "unit": "µM"}, {"measurement": "GI50", "setting": "HCC-2998 colon", "result": 25.5, "unit": "µM"}, {"measurement": "TGI", "setting": "HCC-2998 colon", "result": "> 100", "unit": "µM"}, {"measurement": "GI50", "setting": "HCT-116 colon", "result": 20.2, "unit": "µM"}, {"measurement": "TGI", "setting": "HCT-116 colon", "result": 48, "unit": "µM"}, {"measurement": "GI50", "setting": "HCT-15 colon", "result": 34.3, "unit": "µM"}, {"measurement": "TGI", "setting": "HCT-15 colon", "result": "> 100", "unit": "µM"}, {"measurement": "GI50", "setting": "HL-60(TB) leukemia", "result": 0.0567, "unit": "µM"}, {"measurement": "TGI", "setting": "HL-60(TB) leukemia", "result": 21.8, "unit": "µM"}, {"measurement": "GI50", "setting": "HOP-62 NSCLC", "result": 19.1, "unit": "µM"}, {"measurement": "TGI", "setting": "HOP-62 NSCLC", "result": 75.7, "unit": "µM"}, {"measurement": "GI50", "setting": "HOP-92 NSCLC", "result": 37.5, "unit": "µM"}, {"measurement": "TGI", "setting": "HOP-92 NSCLC", "result": "> 100", "unit": "µM"}, {"measurement": "GI50", "setting": "HS 578T breast", "result": 32.5, "unit": "µM"}, {"measurement": "TGI", "setting": "HS 578T breast", "result": "> 100", "unit": "µM"}, {"measurement": "GI50", "setting": "HT29 colon", "result": 29.2, "unit": "µM"}, {"measurement": "TGI", "setting": "HT29 colon", "result": "> 100", "unit": "µM"}, {"measurement": "GI50", "setting": "IGROV1 ovarian", "result": 34.3, "unit": "µM"}, {"measurement": "TGI", "setting": "IGROV1 ovarian", "result": "> 100", "unit": "µM"}, {"measurement": "GI50", "setting": "K-562 leukemia", "result": 13.5, "unit": "µM"}, {"measurement": "TGI", "setting": "K-562 leukemia", "result": 27.2, "unit": "µM"}, {"measurement": "GI50", "setting": "KM12 colon", "result": 39.6, "unit": "µM"}, {"measurement": "TGI", "setting": "KM12 colon", "result": "> 100", "unit": "µM"}, {"measurement": "GI50", "setting": "LOX IMVI melanoma", "result": 16.9, "unit": "µM"}, {"measurement": "TGI", "setting": "LOX IMVI melanoma", "result": 38.6, "unit": "µM"}, {"measurement": "GI50", "setting": "M14 melanoma", "result": 60.9, "unit": "µM"}, {"measurement": "TGI", "setting": "M14 melanoma", "result": "> 100", "unit": "µM"}, {"measurement": "GI50", "setting": "MALME-3M melanoma", "result": 30.9, "unit": "µM"}, {"measurement": "TGI", "setting": "MALME-3M melanoma", "result": 96.6, "unit": "µM"}, {"measurement": "GI50", "setting": "MCF7 breast", "result": 19.9, "unit": "µM"}, {"measurement": "TGI", "setting": "MCF7 breast", "result": 92.4, "unit": "µM"}, {"measurement": "GI50", "setting": "MDA-MB-231 breast", "result": 39.6, "unit": "µM"}, {"measurement": "TGI", "setting": "MDA-MB-231 breast", "result": "> 100", "unit": "µM"}, {"measurement": "GI50", "setting": "MDA-MB-435 melanoma", "result": 31.2, "unit": "µM"}, {"measurement": "TGI", "setting": "MDA-MB-435 melanoma", "result": "> 100", "unit": "µM"}, {"measurement": "GI50", "setting": "MDA-MB-468 breast", "result": 15.5, "unit": "µM"}, {"measurement": "TGI", "setting": "MDA-MB-468 breast", "result": 45.5, "unit": "µM"}, {"measurement": "GI50", "setting": "MOLT-4 leukemia", "result": 11.5, "unit": "µM"}, {"measurement": "TGI", "setting": "MOLT-4 leukemia", "result": 23.7, "unit": "µM"}, {"measurement": "GI50", "setting": "NCI-H226 lung", "result": 18.5, "unit": "µM"}]}]}
